The source of these data is paper PMC5286435, “Honeybee locomotion is impaired by Am-CaV3 low voltage-activated Ca^2+ channel antagonist” (Scientific Reports, 2017).

The target of assay [1] is T1, Am-CaV3 (Apis mellifera, UniProt A0ACM8RFK5).
T1 construct: gene LOC551883; full channel alpha1 subunit cloned from honeybee, mRNA injected in Xenopus oocytes, without CaVbeta; N-terminal region peptide CFDVPSSDGPSDPS (antibody antigen)
In words: two-electrode voltage clamp in Xenopus oocytes, Ba2+ current block. Format: cell-based.

The target in assay [2] is T1, Am-CaV3. The description is as above. In kind it is cell-based. Conditions: inhibition (blocker), 10 mM Ba2+, reversible, code printed NNC55-0398 in text, NNC 55-0396 in Figure 1 legend.

What is called EC50 is the concentration at which the effect is half-maximal. Higher therefore signals weaker potency.

T1 sequence (A0ACM8RFK5 1-2566): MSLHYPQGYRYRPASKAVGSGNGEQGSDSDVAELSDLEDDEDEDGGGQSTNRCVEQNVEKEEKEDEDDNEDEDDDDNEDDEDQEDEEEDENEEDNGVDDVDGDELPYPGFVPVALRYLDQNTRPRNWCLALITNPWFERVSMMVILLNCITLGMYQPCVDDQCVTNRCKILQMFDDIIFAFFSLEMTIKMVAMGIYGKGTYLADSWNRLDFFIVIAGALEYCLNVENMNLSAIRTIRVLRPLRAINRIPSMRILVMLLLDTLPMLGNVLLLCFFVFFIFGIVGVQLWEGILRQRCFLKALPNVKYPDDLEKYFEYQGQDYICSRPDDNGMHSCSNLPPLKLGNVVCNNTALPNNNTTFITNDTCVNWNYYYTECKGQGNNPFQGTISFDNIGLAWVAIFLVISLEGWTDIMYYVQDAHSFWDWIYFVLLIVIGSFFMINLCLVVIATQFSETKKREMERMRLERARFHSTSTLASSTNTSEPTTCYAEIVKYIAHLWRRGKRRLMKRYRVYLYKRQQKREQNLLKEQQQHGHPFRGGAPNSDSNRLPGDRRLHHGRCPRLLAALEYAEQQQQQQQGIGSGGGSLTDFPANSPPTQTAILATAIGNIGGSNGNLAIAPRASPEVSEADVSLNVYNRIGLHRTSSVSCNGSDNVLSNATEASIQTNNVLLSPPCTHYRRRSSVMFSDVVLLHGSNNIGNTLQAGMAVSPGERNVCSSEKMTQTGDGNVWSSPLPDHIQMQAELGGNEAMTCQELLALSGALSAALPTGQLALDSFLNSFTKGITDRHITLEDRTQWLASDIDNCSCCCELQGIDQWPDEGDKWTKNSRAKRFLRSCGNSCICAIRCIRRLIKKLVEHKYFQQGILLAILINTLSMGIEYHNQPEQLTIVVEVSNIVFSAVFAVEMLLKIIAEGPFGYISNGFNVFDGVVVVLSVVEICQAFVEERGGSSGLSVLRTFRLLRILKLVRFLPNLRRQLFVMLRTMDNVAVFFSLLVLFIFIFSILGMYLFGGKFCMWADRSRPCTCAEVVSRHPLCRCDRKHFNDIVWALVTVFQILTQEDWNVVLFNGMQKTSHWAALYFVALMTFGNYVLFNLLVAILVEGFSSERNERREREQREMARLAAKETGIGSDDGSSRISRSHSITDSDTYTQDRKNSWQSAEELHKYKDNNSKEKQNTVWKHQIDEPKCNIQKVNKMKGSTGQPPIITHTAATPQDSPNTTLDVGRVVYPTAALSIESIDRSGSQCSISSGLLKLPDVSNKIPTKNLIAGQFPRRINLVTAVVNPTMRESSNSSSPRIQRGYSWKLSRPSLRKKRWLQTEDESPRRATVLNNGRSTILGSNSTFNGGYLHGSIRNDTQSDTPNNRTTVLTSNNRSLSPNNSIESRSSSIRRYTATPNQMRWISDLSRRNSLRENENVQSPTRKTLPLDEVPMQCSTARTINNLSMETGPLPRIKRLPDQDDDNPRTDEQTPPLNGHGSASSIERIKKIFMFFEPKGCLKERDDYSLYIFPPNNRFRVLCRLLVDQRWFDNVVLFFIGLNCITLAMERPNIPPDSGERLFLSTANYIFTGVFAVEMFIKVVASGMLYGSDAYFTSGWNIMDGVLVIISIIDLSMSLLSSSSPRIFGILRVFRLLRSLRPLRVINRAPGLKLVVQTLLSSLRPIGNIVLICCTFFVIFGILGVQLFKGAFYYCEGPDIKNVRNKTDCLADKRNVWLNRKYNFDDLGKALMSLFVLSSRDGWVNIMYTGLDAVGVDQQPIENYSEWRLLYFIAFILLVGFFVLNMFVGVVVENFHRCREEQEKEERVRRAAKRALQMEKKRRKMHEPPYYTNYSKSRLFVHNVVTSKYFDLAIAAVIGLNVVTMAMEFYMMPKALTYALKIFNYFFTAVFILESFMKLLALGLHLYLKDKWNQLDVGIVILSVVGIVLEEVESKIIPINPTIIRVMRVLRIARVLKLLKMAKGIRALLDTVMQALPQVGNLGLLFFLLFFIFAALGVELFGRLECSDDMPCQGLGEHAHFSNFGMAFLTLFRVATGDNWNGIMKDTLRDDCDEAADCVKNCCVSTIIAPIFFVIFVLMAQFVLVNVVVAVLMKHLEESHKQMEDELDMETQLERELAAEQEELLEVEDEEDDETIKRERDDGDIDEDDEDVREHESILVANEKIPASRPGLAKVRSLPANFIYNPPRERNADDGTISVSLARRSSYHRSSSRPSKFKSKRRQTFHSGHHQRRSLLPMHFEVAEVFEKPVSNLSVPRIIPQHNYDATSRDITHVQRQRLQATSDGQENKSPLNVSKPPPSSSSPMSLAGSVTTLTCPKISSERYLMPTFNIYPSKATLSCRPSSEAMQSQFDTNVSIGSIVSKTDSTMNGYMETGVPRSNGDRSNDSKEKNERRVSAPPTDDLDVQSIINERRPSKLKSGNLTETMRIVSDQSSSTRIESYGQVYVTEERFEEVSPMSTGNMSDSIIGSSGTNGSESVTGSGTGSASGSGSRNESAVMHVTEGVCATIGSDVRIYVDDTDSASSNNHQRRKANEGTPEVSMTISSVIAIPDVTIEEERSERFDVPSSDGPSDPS

For the compound `COCC(=O)O[C@]1(CCN(C)CCCc2nc3ccccc3[nH]2)CCc2cc(F)ccc2[C@@H]1C(C)C` [Mi, mibefradil], the response on Am-CaV3 [1] was half-maximal at 3.5 µM (EC50).

`CC(C)[C@H]1c2ccc(F)cc2CC[C@@]1(CCN(C)CCCc1nc2ccccc2[nH]1)OC(=O)C1CC1` [NN, NNC 55-0396]: the “residual current at 10 μM” value on Am-CaV3 [2] is “The mibefradil analogue NNC55-0398 (NN) also had a similar potency”.
